Results published in ChEMBL document CHEMBL1201862, “PubChem BioAssay data set” (2004).
Calls of active or inactive are those of the source.

Columns and labels:
[1] = molecular target: T1, Calpain-2 catalytic subunit (Sus scrofa, UniProt P43367); test: pig calpain II inhibitor potency, dose response, biochemical, fluorogenic peptide substrate (AID 1420); assay type: functional
T1 sequence (P43367 whole entry): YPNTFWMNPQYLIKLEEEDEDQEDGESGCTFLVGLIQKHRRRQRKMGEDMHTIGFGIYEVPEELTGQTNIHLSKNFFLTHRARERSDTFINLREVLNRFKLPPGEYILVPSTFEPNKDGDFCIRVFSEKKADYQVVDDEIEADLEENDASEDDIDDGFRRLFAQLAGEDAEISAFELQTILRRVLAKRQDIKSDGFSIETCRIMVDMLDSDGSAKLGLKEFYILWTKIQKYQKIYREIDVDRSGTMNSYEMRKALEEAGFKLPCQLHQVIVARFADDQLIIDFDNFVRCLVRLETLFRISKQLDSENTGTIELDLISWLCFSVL

[2] = molecular target: T2, Corticotropin-releasing factor receptor 2/Corticotropin-releasing factor-binding protein (Homo sapiens, UniProt P24387+Q13324); test: activators of CRF receptor 2 with binding protein – uHTS hits, confirmation (AID 602473); assay type: functional; settings: read-out: EC50_Mean
T2 sequence (Q13324 whole entry): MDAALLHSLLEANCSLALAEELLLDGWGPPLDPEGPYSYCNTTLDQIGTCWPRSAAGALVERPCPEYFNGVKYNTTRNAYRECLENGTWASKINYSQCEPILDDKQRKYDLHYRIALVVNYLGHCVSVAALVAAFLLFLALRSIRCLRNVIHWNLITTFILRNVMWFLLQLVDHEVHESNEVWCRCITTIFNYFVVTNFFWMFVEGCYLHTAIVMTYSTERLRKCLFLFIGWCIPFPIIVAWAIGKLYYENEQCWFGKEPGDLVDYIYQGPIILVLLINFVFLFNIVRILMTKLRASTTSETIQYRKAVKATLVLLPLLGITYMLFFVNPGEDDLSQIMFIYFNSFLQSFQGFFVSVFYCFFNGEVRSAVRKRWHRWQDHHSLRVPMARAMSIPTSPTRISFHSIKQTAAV
T2 sequence (P24387 whole entry): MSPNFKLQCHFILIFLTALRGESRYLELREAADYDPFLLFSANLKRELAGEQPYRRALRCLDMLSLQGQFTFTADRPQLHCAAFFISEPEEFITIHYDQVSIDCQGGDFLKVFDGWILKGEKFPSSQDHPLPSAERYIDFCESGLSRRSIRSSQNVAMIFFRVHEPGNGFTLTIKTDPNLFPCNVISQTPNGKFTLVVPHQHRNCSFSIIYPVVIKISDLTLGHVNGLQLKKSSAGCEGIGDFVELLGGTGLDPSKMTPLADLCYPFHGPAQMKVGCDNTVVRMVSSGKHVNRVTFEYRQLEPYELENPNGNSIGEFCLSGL

[3] = molecular target: T2, Corticotropin-releasing factor receptor 2/Corticotropin-releasing factor-binding protein; test: Dose Response confirmation of uHTS hits for small molecule antagonists of the CRF-binding protein and CRF-R2 receptor complex.; assay type: functional; settings: read-out: IC50_Mean
[4] = CRF-BP/CRF-R2 complex antagonists, dose response, cell-based, uHTS hits, 384-well (AID 651639); assay type: functional, Homo sapiens; settings: read-out: IC50_Mean
HEK293 [5] = test: cells; settings: Homo sapiens
HEK293 [6] = test: cells; settings: Homo sapiens; remark: listed apart in the source
Fatty acid synthase [7] = molecular target: T3, Fatty acid synthase (Homo sapiens, UniProt P49327); test: FAS thioesterase domain inhibitors, dose response, biochemical, endpoint fluorescence intensity, uHTS hits (AID 624327); assay type: functional;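 further: fluorescence from hydrolysis of an O-methyl fluorescein acyl ester substrate by the enzyme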
T3 sequence (P49327 whole entry, the tested form may be a part): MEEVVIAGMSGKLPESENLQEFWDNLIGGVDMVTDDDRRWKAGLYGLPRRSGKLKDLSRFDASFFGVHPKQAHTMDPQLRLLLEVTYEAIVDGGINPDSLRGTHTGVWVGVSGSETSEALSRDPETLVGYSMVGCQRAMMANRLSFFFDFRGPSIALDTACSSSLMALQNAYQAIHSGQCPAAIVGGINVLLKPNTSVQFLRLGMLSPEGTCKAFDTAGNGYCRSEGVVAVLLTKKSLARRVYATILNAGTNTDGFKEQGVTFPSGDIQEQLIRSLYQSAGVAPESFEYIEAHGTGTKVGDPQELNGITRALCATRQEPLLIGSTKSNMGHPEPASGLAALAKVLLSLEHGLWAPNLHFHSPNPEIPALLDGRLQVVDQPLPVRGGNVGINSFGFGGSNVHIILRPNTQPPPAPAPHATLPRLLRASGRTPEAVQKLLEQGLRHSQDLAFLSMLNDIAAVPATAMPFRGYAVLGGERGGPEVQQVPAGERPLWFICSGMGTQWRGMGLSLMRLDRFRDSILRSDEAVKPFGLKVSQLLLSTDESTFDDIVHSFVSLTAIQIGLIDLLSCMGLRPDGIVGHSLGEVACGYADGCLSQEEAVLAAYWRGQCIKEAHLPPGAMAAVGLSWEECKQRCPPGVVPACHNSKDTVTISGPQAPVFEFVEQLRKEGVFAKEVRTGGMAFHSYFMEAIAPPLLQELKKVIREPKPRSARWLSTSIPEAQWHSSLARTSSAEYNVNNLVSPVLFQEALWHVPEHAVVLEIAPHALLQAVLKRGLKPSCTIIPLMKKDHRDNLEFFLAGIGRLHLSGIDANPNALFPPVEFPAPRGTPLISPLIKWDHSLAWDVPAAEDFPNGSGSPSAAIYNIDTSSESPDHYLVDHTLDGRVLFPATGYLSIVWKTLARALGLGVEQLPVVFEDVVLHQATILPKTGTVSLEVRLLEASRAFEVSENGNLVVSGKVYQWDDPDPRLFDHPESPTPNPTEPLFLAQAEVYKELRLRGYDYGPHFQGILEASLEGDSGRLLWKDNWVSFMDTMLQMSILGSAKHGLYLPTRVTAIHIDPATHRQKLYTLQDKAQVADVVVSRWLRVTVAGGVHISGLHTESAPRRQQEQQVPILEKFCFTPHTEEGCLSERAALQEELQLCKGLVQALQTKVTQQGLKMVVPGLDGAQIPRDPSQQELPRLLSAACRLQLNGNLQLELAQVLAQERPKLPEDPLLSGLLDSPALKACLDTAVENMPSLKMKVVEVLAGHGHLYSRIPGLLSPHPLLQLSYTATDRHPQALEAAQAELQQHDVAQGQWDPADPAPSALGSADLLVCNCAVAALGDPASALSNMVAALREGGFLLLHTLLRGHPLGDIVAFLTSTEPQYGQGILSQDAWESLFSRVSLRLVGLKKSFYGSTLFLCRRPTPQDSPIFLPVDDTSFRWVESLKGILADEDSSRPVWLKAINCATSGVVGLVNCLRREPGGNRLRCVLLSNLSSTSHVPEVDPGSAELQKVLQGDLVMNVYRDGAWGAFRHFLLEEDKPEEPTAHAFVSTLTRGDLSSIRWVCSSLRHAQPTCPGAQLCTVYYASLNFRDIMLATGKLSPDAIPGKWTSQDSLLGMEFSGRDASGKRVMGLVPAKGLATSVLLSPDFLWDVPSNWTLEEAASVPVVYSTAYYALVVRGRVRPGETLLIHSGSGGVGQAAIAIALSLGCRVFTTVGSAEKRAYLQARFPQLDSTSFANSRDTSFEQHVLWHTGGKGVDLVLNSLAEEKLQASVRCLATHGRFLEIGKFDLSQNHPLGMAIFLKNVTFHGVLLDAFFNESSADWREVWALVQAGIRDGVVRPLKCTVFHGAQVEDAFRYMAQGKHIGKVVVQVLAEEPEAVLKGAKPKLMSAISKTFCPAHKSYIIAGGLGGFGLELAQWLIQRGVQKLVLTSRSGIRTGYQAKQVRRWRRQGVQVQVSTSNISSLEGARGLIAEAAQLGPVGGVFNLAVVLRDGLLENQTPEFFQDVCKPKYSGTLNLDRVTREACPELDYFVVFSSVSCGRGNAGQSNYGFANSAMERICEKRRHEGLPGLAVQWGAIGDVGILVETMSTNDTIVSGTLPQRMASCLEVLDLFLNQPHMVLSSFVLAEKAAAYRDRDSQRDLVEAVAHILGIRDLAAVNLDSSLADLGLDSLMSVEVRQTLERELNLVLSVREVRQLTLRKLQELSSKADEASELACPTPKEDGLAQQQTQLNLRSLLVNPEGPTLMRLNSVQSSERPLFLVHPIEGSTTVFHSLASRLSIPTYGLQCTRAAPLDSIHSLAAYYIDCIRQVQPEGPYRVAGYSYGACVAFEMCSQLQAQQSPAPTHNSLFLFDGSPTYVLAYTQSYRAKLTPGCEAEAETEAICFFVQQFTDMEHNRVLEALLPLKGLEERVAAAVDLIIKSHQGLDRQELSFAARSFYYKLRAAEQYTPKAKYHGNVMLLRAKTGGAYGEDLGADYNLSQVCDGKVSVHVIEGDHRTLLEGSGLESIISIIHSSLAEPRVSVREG

Fatty acid synthase [8] = molecular target: T3, Fatty acid synthase; test: FAS thioesterase domain inhibitors, dose response, biochemical, kinetic fluorescence intensity (AID 624326); assay type: functional;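 further: rate of fluorescence rise from hydrolysis of a fluorogenic O-methyl fluorescein ester substrate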
[9] = THP-1 cell cytotoxicity, dose response, cytotoxicity control for non-replicating M. tuberculosis project (AID 489025); assay type: functional
[10] = cytotoxicity in HEK-293T cells, dose response, cytotoxicity control for TCR NF-kB inhibitor project, luminescence, T-cell screen hits (AID 489026); assay type: functional, cell-based;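 further: cells exposed to compound about 14 hours before the viability readout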
Paired box protein Pax-8 = Paired box protein Pax-8 (Homo sapiens, UniProt Q06710); test: inhibitors of PAX8-driven TPO luciferase reporter, dose response, RMG-I cells, cherry-pick (AID 687027); assay type: functional, cell-based;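 further: luciferase reporter driven by Pax8 target thyroperoxidase promoter measured by SteadyGlo luminescence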
Sequence of Paired box protein Pax-8 (Q06710 whole entry): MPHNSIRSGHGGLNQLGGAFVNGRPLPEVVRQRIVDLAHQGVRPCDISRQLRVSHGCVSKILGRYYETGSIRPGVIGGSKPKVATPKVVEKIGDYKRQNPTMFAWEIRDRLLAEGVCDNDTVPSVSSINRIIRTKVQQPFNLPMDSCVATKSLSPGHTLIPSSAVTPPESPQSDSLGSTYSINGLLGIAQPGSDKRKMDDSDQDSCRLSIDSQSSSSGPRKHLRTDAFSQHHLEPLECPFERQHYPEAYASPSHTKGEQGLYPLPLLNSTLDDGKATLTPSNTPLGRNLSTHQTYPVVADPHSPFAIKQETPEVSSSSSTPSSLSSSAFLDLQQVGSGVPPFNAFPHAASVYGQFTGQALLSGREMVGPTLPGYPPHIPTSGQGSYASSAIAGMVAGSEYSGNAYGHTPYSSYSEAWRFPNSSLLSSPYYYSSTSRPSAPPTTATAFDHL

[11] = molecular target: DNA dC->dU-editing enzyme APOBEC-3G (Homo sapiens, UniProt Q9HC16); test: Dose Response confirmation of small molecule APOBEC3G DNA Deaminase Inhibitors via a fluorescence-based single-stranded DNA deaminase assay. [Related pubchem assays (depositor defined):AID493012, AID493028]; assay type: functional
Sequence of DNA dC->dU-editing enzyme APOBEC-3G (Q9HC16 whole entry): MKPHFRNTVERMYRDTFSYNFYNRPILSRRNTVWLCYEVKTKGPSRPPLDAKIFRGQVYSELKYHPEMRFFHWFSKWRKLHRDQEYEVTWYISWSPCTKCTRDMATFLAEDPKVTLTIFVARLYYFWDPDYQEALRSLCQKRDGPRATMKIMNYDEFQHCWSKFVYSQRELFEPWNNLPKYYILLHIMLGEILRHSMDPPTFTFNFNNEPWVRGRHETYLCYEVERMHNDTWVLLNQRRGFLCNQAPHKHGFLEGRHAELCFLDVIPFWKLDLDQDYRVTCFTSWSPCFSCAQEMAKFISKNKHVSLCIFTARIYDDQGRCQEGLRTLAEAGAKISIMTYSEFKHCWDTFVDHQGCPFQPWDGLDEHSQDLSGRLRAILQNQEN

[12] = molecular target: FAD-linked sulfhydryl oxidase ALR (Homo sapiens, UniProt P55789); test: inhibitors of human ALR sulfhydryl oxidase, dose response, biochemical, H2O2 detection, luminescence, cherry-pick (AID 493248)
Sequence of FAD-linked sulfhydryl oxidase ALR (P55789 whole entry): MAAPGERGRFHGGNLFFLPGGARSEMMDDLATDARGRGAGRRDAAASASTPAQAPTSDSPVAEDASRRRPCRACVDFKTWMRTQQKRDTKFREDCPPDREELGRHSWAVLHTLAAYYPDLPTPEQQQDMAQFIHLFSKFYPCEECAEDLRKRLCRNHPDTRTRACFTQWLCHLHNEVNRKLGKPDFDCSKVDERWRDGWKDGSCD

[13] = molecular target: DNA dC->dU-editing enzyme APOBEC-3A (Homo sapiens, UniProt P31941); test: APOBEC3A DNA deaminase inhibitors, dose response, biochemical (AID 504722); assay type: functional
Sequence of DNA dC->dU-editing enzyme APOBEC-3A (P31941 whole entry): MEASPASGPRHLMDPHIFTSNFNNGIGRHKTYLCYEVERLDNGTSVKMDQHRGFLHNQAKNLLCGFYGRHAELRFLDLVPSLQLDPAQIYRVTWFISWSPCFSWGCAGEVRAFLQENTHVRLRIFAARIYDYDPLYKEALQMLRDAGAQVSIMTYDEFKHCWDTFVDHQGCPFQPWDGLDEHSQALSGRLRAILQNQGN

[14] = NIH-3T3 fibroblast cytotoxicity, dose response, cytotoxicity control, cell-based, fluorescence, Alamar Blue, secondary assay (AID 2327); assay type: functional;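 further: NIH-3T3 mouse fibroblasts cultured with fluconazole at 8 µg/mL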
[15] = C. albicans growth with fluconazole, confirmation, fluorescence, retest (AID 2467); assay type: functional, cell-based
[16] = CEM21 lymphoblast cell cytotoxicity, dose response, cytotoxicity control for viral fusion inhibitor project, CellTiter-Glo luminescence, cherry-picked (AID 652042); assay type: functional, cell-based;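 further: potency for signal decrease meaning cytotoxicity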
[17] = ZM109 Env clade C HIV-1 fusion inhibitors, dose response, HeLa effector, CEM target cells, luciferase, cherry-pick (AID 652058); assay type: functional, cell-based
[18] = inhibitors of HIV Env-driven cell fusion, dose response, cherry-pick (AID 652057); assay type: functional, cell-based
[19] = inhibitors of clade B AD8 Env fusion, dose response, cell-based, cherry-pick (AID 652062); assay type: functional;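 further: luciferase signal from cell-cell fusion driven by HIV-1 clade B AD8 Env; potency is for inhibitors of fusion seen as a drop in luminescence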
cells [20] = assay type: functional, cell-based
cells [21] = assay type: functional, cell-based; remark: listed apart in the source
H9c2 = test: cells; assay type: functional, cell-based; settings: Rattus norvegicus, H9c2, Myocardium;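 further: confirmatory concentration-response retest of ultra-high-throughput screening hits for modulation of myocardial damage; cell death induced by hydrogen peroxide oxidative stress; compound pretreatment for 60 min then peroxide exposure for 2 h; potency is for protecting the cells against peroxide damage rather than for killing them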
[22] = microbe, parasite or virus in culture; assay type: functional; settings: Mycobacterium tuberculosis

Compound: CC1Cc2ccccc2N1C(=O)COC(=O)Cn1nnc(-c2ccccc2)n1 (stereo not drawn)
- IC50 [1]: 8.56 µM (not active)

Compound: CSc1ccccc1NC(=O)COc1ccccc1C
- IC50 [1]: 8.86 µM (not active)

Compound: Cc1ccc(S(=O)(=O)c2nnn3c2nc(N2CCOCC2)c2ccccc23)cc1C
- EC50 [2]: > 53 µM (inactive)
- IC50 [3]: 5.78 µM (active)
- IC50 [4]: 7.26 µM (active)

Compound: Cn1c(N)c(C(=O)COC(=O)CNS(=O)(=O)c2ccc(Cl)c(Cl)c2)c(=O)n(C)c1=O
- EC50 [2]: > 53 µM (inactive)
- IC50 [3]: 30.8 µM (active)
- IC50 [4]: 9.63 µM (active)

Compound: C=CCn1c(S)nnc1-c1csc(-c2ccc(OC)c(OC)c2)n1
- EC50 (HEK293 [5]): > 0.736 µM (active)
- EC50 (HEK293 [6]): > 59.7 µM (inactive)

Compound: Cc1cc([N+](=O)[O-])nn1CC(=O)N/N=C/c1ccccc1Br
- IC50 (Fatty acid synthase [7]): 10.3 µM (active)
- IC50 (Fatty acid synthase [8]): 7.28 µM (active)

Compound: Cc1ccc2c(c1)C(=O)C(=O)N2CCCOc1ccccc1
- CC50 [9]: > 40 µM (active)

Compound: COc1ccc(OC)c(-c2nnc3n2N=C(c2ccc(OC)c(OC4CCCC4)c2)CS3)c1
- IC50 [10]: 28.3 µM (inactive)
- AC50 (Paired box protein Pax-8): 3.49 µM (active)

Compound: O=C(NC(=O)c1ccccc1O)c1ccc(C(F)(F)F)cc1
- EC50 [2]: 9.51 µM (active)
- IC50 [3]: 4.31 µM (active)
- IC50 [4]: 15 µM (active)

Compound: CCOC(=O)c1ccc(/N=c2\sc(C(=O)OC)cc(=O)n2CCCN2CCOCC2)cc1
- EC50 [2]: > 53 µM (inactive)
- IC50 [3]: 4.49 µM (active)
- IC50 [4]: 4.53 µM (active)

Compound: COc1cccc(/C=N/n2c(S)nnc2-c2cc(C)[nH]n2)c1OC
- IC50 [11]: 3.89 µM (active)
- AC50 [12]: 4.04 µM (active)
- IC50 [13]: > 100 µM (inactive)

Compound: Sc1nnc(-c2ccccc2)n1/N=C/c1cccs1
- EC50 [14]: > 160 µM (inactive)
- IC50 [11]: 1.81 µM (active)
- EC50 [15]: 2.56 µM (active)
- IC50 [13]: > 100 µM (inactive)

Compound: O=C(C[C@H]1CC[C@@H](NC(=O)c2cccc(F)c2)[C@@H](CO)O1)NCc1ccc(Oc2ccccc2)cc1
- AC50 [16]: 58.1 µM (active)
- AC50 [17]: 1.21 µM (active)
- AC50 [18]: 0.525 µM (active)
- AC50 [19]: 1.2 µM (active)

Compound: CCN(CC(=O)Nc1ccc2c(c1)OCCO2)CC(=O)Nc1ccc2c(c1)OCO2
- EC50 (cells [20]): > 350 µM (not active)
- EC50 (cells [21]): > 350 µM (not active)

Compound: CC(=O)N1CCN(c2ccccc2NC(=O)c2ccc(-c3cccc([N+](=O)[O-])c3)o2)CC1
- IC50 (Fatty acid synthase [7]): 8.81 µM (active)
- IC50 (H9c2): > 79 µM (inactive)
- IC50 (Fatty acid synthase [8]): 12.1 µM (active)

Compound: Cc1csc(N(C(=O)CCNC(=O)c2ccc([N+](=O)[O-])cc2)c2ccccc2)n1
- IC50 (Fatty acid synthase [7]): 5.73 µM (active)
- IC50 (Fatty acid synthase [8]): 4.74 µM (active)

Compound: C[C@H](C(=O)N(C)C[C@@H]1OCc2ccccc2-c2c(n(C)c3ccccc23)C(=O)N([C@@H](C)CO)C[C@H]1C)c1ccccc1
- AC50 [16]: 22.5 µM (active)
- AC50 [17]: 12 µM (active)
- AC50 [18]: 4.94 µM (active)
- AC50 [19]: 8.67 µM (active)

Compound: Cc1cc(OC(=O)c2cccs2)c2c3c(c(=O)oc2c1)CCCC3
- EC50 [2]: > 53 µM (inactive)
- IC50 [3]: 16.4 µM (active)
- IC50 [4]: > 20 µM (inactive)
- CC50 [22]: > 40 µM (active)

Compound: N#CC1=C2SCN(c3ccccc3)CN2C(=O)CC1c1c(Cl)cccc1Cl (stereo not drawn)
- IC50 [11]: 4.44 µM (active)
- IC50 [13]: > 100 µM (inactive)

Compound: COc1cccc(CNC(=O)COC(=O)c2cc([N+](=O)[O-])ccc2N2CCCC2)c1
- IC50 (Fatty acid synthase [7]): 3.18 µM (active)
- IC50 (Fatty acid synthase [8]): 1.23 µM (active)

Compound: CC(C)(C)c1ccc(C(=O)NCC(=O)OCc2ccc([N+](=O)[O-])cc2)cc1
- IC50 (Fatty acid synthase [7]): 2.66 µM (active)
- IC50 (Fatty acid synthase [8]): 1.69 µM (active)

Compound: Cn1cccc1/C=N/n1c(S)nnc1-c1ccco1
- IC50 [11]: 3.92 µM (active)
- IC50 [13]: > 100 µM (inactive)

Compound: CC(C)COc1cccc(C(=O)NNC(=O)C2COc3ccccc3O2)c1 (stereo not drawn)
- EC50 (cells [20]): > 350 µM (not active)
- EC50 (cells [21]): > 350 µM (not active)

Compound: Cc1ccc(C)c(N2CCN(C(=O)C3CCCCN3S(=O)(=O)c3ccc(F)cc3)CC2)c1 (stereo not drawn)
- IC50 [1]: 7.84 µM (not active)
